In US9084770B2, “Modulation of insulin like growth factor I receptor expression in cancer” (Antisense Therapeutics, Ltd., priority 2008, dated 2015):

Columns and labels:
IGF-IR mRNA [1] = assay: IGF-IR mRNA expression in transfected LNCaP and PC-3 cells, quantitative RT-PCR; assay type: cell-based, human; conditions: one day after treatment
Procedure: (§1) Established methods were used to test the activity of IGF-IR antisense oligonucleotide on LNCaP and PC-3 cell growth (crystal violet assay) and apoptosis (FACS). Dose- and sequence-specific suppression of IGF-IR mRNA and protein expression in ATL1101-treated LNCaP and PC3 PC cell lines in vitro were observed by QT-PCR and western blotting. Effects of the IGF-IR antisense oligonucleotide on various putative targets, including IGF-IR and downstream targets were evaluated using western blotting.
FIGS. 1A(i)-1A(ii) show the sequence-specific and dose-dependent suppression of IGF-IR mRNA expression levels by ATL1101 in LNCaP (FIG. 1A (i)) and PC-3 (FIG. 1A (ii)) cells. […] One day after treatment, total RNA was extracted, and IGF-IR mRNA expression was analyzed by quantitative RT-PCR. IGF-IR mRNA levels were normalized to levels of GAPDH mRNA and expressed here as mean±SE. ***, p<0.001 differ from control (oligofectamine only) by Student's t test. “Control” cells were treated with oligofectamine only. In LNCaP cells, IGF-IR expression was >70% suppressed by 10 nM ATL1101 and >90% at 200 nM ATL1101. In PC3 cells, IGF-IR expression was suppressed ˜40% at 10 nM ATL1101, >50% at 50 nM ATL1101 and ˜80% at 200 nM. Control oligodeoxynucleotide (ISIS 306064) did suppress IGF-IR mRNA expression but by less than 25% at maximal doses tested

IGF-IR mRNA [2] = conditions: other cell lines, dose-dependent and sequence specific; cited from earlier work
[3] = tested on: insulin receptor-B (IR-B); assay: Insulin receptor-B protein in transfected LNCaP and PC3 cells, immunoblot; assay type: cell-based, human; conditions: highest ATL1101 concentration tested for each cell line (LNCaP, PC3)
Procedure: (§2) FIGS. 1B(i)-1B(ii) show sequence-specific and dose-dependent inhibition of IGF-IR protein by IGF-IR antisense oligonucleotide in LNCaP (FIG. 1B (i)) and PC-3 (FIG. […]) cells. […] Two days after the second transfection, whole cell detergent lysates were prepared and 30 μg of total protein was subjected to SDS-PAGE and immunoblotted for IGF-IRB subunit, IR-BB subunit and vinculin expression. Oligofectamine, oligofectamine treated cells only. In LNCaP cells, IGF-IR expression was >80% suppressed by 10 nM ATL1101 and was undetectable at 100 nM ATL1101. In PC3 cells, IGF-IR expression was suppressed ˜50% at 10 nM ATL1101, >80% at 50 nM ATL1101 and >90% at 200 nM. […] Vinculin expression is shown as a loading control.

[4] = tested on: Cyclin D1, Cyclin E, p-RB, p27; assay: Cell cycle proteins in LNCaP and PC-3 cells, immunoblot; assay type: cell-based, human
Procedure: The Effect of IGF-IR silencing with IGF-IR antisense oligonucleotide (ATL1101) on LNCaP and PC3 cell apoptosis and cell cycle is shown in FIGS. 4A(i)-(ii), 4B, 4C(i)-(ii), and Table 2. Cells were transfected with indicated concentrations of ATL1101, control oligodeoxynucleotide or oligofectamine as in FIGS. 1A(i)-1B(ii). Two days after treatment, cell cycle analysis was determined by flow cytometry using propidium iodide staining. […] In FIGS. 4C(i)-(ii), LNCaP (FIG. 4C (i)) or PC-3 (FIG. 4C (ii)) cells were transfected with indicated concentration of ATL1101 or control oligodeoxynucleotide (ISIS 306064) for two days. Cells were then cultured in FBS media for one day and in serum-free media for one day. Whole cell lysates (30 μg) were subjected to SDS-PAGE and immunoblotted to assess Cyclin D1, Cyclin E, p-RB, total Rb, and p27 protein levels. Oligo, oligofectamine treated cells only.

PC3 cells = assay: PC3 viable cells and apoptosis after transfection plus Paclitaxel
Procedure: PC3 cells cultured in vitro were transfected at concentrations of IGF-IR antisense oligonucleotide (ATL1101) or control oligodeoxynucleotide (ISIS 306064) ranging from 12.5 nM to 50 nM or oligofectamine control once per day on two sequential days. After the 2nd transfection, the PC3 cells were treated with concentrations of between 0.1 to 50 nM Paclitaxel. The number of viable cells remaining were determined 72 hours after Paclitaxel treatment.

[5] = tested on: IGF-IR protein (IGF-IRB subunit); assay: IGF-IR protein in transfected LNCaP and PC3 cells, immunoblot; assay type: cell-based, human
Procedure: as §1, §2

IGF-IR mRNA [6] = assay: IGF-IR mRNA in PC3 Ptx-R cells; assay type: cell-based, human; conditions: 10 to 200 nM, compared to oligofectamine transfection reagent
From the text: (§3) The PC3 Ptx-R cells retain sensitivity to ATL1101-induced IGF-IR down regulation at the mRNA and protein level as shown in FIGS. 11A-C. […] ATL1101 and the control oligodeoxynucleotide ISIS 306064 had no effect on either of the alternative spliced isoform transcripts of the insulin receptor, IR-A, IR-B or IR-β protein or vinculin protein levels.

IGF-IRβ subunit protein = IGF-IRβ subunit protein in PC3 Ptx-R cells; assay type: cell-based, human; conditions: 10 to 200 nM, compared to oligofectamine transfection reagent
From the text: as §3

LNCaP tumors = assay: LNCaP xenograft after castration, tumor volume and serum PSA; assay type: in vivo, mice; conditions: 15 mg/kg i.p. once daily for 7 days and 3 times per week thereafter; vs control oligodeoxynucleotide
Procedure: One million PC-3 or LNCaP cells were injected subcutaneously in athymic mice. For LNCaP xenografts, when PSA values exceeded 50 ng/ml, mice were castrated and randomly selected for treatment with ATL1101 or control oligodeoxynucleotide (15 mg/kg) injected i.p. once daily for 7 days and 3 times per week thereafter. Blood samples were obtained from the tail vein of the mice once weekly to measure serum PSA by ELISA. For PC-3 xenografts, when tumors reached 100 mm^3, mice were randomly selected and treated with the same protocol as LNCaP.
The effects of IGF-IR antisense oligonucleotide treatment in LNCaP and PC-3 tumors in vivo are show in FIGS. 5A-5C. LNCaP cells were inoculated s.c. and when PSA values exceeded 50 ng/ml, mice were castrated and randomly selected for treatment with ATL1101 or control oligodeoxynucleotide (15 mg/kg) injected i.p. once daily for 7 days and 3 times per week thereafter. Blood samples were obtained from the tail vein of the mice once weekly to measure serum PSA by ELISA. PC-3 cells were inoculated s.c. and when tumors reached 100 mm^3, mice were randomly selected for treatment with the same protocol as LNCaP. Each point represents the mean tumor volume in each group containing 10 mice; bars, SE. * differs from control oligodeoxynucleotide treatment group (p<0.05) by Student's t test.

## cgaaggaaacaatactccga (CGAAGGAAACAATACTCCGA; 2'-MOE modified, pattern not given here) [ISIS 175317, 2′-MOE-modified IGF-IR antisense oligonucleotide, also known as ATL1101]
IGF-IR mRNA [1]; LNCaP cells, 10 nM
  suppression of IGF-IR mRNA expression: > 70%
IGF-IR mRNA [1]; LNCaP cells, 200 nM
  suppression of IGF-IR mRNA expression: > 90%
IGF-IR mRNA [1]; PC3 cells, 10 nM
  suppression of IGF-IR mRNA expression: ~40%
IGF-IR mRNA [1]; PC3 cells, 50 nM
  suppression of IGF-IR mRNA expression: > 50%
IGF-IR mRNA [1]; PC3 cells, 200 nM
  suppression of IGF-IR mRNA expression: ~80%
IGF-IR mRNA [2]
  inhibition of IGF-IR mRNA expression: significantly inhibit
[3]
  suppression of IR-B expression: < 10%
[4]
  activation of Cyclin D1, Cyclin E, p-RB: suppressed
  p27 protein production: increased
PC3 cells; 25 nM ATL1101 with 1 nM Paclitaxel
  fold higher Paclitaxel concentration (10 nM vs 1 nM) needed with 25 nM mismatch control for similar viability: 10 fold
PC3 cells; in combination with ATL1101
  amount of Paclitaxel required to induce tumor cell apoptosis: significantly reduced
[5]; LNCaP cells, 10 nM, two days after second transfection
  suppression of IGF-IR protein expression: > 80%
[5]; LNCaP cells, 100 nM
  IGF-IR protein expression: undetectable
[5]; PC3 cells, 10 nM
  suppression of IGF-IR protein expression: ~50%
[5]; PC3 cells, 50 nM
  suppression of IGF-IR protein expression: > 80%
[5]; PC3 cells, 200 nM
  suppression of IGF-IR protein expression: > 90%
IGF-IR mRNA [6]
  IGF-IR mRNA levels: specifically reduced
IGF-IRβ subunit protein
  IGF-IRβ subunit protein levels: specifically reduced
LNCaP tumors
  PSA rise rates after castration: significantly delayed
  tumor growth after castration: significantly delayed
